According to patent US20150110716A1, “METHODS OF USING SPECT/CT ANALYSIS FOR STAGING CANCER” (Molecular Insight Pharmaceuticals, Inc., priority 2013, published 2015):

Experiments:
[1] = Phase 1 cross-over study: pharmacokinetics, biodistribution, dosimetry, excretion; assay type: in vivo, human
Excerpt: (§1) Pharmacokinetics, Biodistribution, Dosimetry, Metabolism & Excretion of compound represented by Formula (1) and Formula (2). Methods: Fourteen subjects (7 metastatic prostate cancer patients and 7 healthy, normal males) were enrolled in a phase 1, single-blind, randomized, cross-over study in which subjects were randomly administered a single dose (740 MBq; 20 mCi) of a compound represented by Formula (1) and a similar chemical analog, a compound represented by Formula (2), 14 days apart. […] (FIGS. 1 and 2A)

[2] = tested on: lesions in lymph nodes and bone of men with prostate cancer; assay: Phase 1 cross-over study: whole-body and SPECT/CT lesion imaging; assay type: in vivo, human; settings: patient with prior prostatectomy and rising PSA, FIG. 2C
Excerpt: as §1

PSMA = PSMA (Homo sapiens, UniProt Q04609); assay: In vitro binding studies to PSMA; settings: read-out: affinity of binding to PSMA
Excerpt: As illustrated, the dimeric backbone of both Formula (1) and Formula (2) compounds contain carboxylate residues that bind to the basic substrate binding pockets of the protein. The radiolabel chelator is attached to the side chain carboxyl residue (Formula (1)) or the side chain amine group (Formula (2)) through an intervening linker.

Sequence of PSMA (Q04609 whole entry): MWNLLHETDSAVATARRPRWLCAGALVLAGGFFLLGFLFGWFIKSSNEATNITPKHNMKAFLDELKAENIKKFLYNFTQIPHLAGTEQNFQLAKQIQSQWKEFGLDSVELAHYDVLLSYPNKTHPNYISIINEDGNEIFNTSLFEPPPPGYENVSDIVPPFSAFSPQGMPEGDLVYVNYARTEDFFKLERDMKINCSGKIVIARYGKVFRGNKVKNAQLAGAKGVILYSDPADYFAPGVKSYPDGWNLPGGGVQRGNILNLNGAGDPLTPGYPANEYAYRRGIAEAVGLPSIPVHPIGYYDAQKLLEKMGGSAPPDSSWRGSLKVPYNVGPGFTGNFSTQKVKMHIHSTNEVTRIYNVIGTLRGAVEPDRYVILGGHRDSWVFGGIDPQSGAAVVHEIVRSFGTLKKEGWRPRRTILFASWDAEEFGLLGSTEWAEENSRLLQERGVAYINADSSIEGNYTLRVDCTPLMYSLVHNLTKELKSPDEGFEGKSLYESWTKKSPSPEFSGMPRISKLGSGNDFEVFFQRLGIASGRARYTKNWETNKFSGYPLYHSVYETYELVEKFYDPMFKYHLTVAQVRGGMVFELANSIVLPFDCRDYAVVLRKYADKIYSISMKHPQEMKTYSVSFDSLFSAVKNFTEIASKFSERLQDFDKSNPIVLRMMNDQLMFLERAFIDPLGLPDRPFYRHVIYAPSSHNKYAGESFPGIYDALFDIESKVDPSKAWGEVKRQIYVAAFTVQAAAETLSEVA

| period over which compound is cleared from blood ([1]; FIG. 1A) | physiological clearance rate ([1]; Formula (2) compared with Formula (1)) | rate of clearance from blood ([1]; Formula (2) compared with Formula (1), FIG. 1A) | clearance from these organs ([1]; Formula (2) compared with Formula (1), full body scans over 24 hours) | estimated radiation dose (dosimetry) ([1]; single dose 740 MBq (20 mCi)) | amount excreted in urine ([1]; urine samples over 30 hours post administration, Formula (2) compared with Formula (1), FIG. 1B) | Kd (PSMA) | SMILES | tissues of accumulation ([1]; in vivo pharmacokinetic and biodistribution studies) | detection of metastatic lesions compared with bone scan [2] |
| --- | --- | --- | --- | --- | --- | --- | --- | --- | --- |
| about 1500 minutes | more rapid | greater | clears more rapidly | within the clinically acceptable range | significantly greater amount |  | N[C@@H](CCCC[N+]12Cc3n(CC(=O)O)cc[n+]3[99Tc-2]1[n+]1ccn(CC(=O)O)c1C2)C(=O)NCCCCC(NC(=O)NC(CCC(=O)O)C(=O)O)C(=O)O.[C-]#[O+].[C-]#[O+].[C-]#[O+] (stereo partly drawn) [Formula (2)] | liver, kidneys and salivary glands as well as the urinary bladder and prostate tissue | identified multiple foci of metastatic cancer not seen in the bone scan |
|  |  |  |  |  |  | 31 nM | N[C@@H](CCCC[N+]12Cc3n(CC(=O)O)cc[n+]3[Tc-2]1[n+]1ccn(CC(=O)O)c1C2)C(=O)NCCCCC(NC(=O)NC(CCC(=O)O)C(=O)O)C(=O)O.[C-]#[O+].[C-]#[O+].[C-]#[O+] (stereo partly drawn) [Formula (2)] |  |  |
